These results are taken from publication PMC4418176 (Bioorganic & medicinal chemistry letters, 2009).

The target of assay [1] is NTR1 (Homo sapiens, UniProt P30989). The assay can be described thus: NTR1 agonist-mediated calcium mobilization assay. The assay is classed as cell-based. To be noted: for NTR1 specificity of the observed calcium release (block by NTR1 antagonist 1a): cells pre-incubated with 1 or 10 mM 1a for 15 min at 37 °C, test compound at its EC50, data not shown. (In general: Calcium flux is commonly read through the fluorescence of an indicator in the cells.)

Assay [2] deals with NTR1 receptor. To be noted: calcium release (FLIPR) assay; cited from earlier work.

NTR1, sequence (P30989 whole entry, species assumed): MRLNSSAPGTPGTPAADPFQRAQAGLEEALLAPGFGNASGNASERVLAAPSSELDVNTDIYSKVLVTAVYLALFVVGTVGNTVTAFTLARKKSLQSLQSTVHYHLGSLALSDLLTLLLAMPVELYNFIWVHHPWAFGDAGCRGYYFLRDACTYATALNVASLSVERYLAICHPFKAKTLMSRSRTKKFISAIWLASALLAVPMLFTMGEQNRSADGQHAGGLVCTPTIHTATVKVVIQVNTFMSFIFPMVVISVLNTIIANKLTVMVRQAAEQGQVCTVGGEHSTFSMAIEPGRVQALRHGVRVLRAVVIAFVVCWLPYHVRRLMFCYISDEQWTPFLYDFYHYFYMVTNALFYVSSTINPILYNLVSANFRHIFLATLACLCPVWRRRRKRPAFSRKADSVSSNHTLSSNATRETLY

Consider `COc1cccc(OC)c1-c1cc(C(=O)N[C@@H](CC(C)C)C(=O)O)nn1-c1ccnc2cc(Cl)ccc12` [Compound 3a], for which, in assay [1], the “NTR1 specificity of the observed calcium release (block by NTR1 antagonist 1a)” value is recorded as “demonstrated by blocking with the NTR1 antagonist (1a)”. Moreover, the Emax in assay [1] (± SEM, relative to neurotensin) came to 51 %NT. Turning to `COc1cccc(OC)c1-c1cc(C(=O)N[C@@H](CC(C)C)C(=O)O)nn1-c1cccc2ccccc12` [Compound 5], in assay [1], the “agonist activity when screened” value was “no agonist activity”. For `CC(C)CC(NC(=O)OCC1c2ccccc2-c2ccccc21)C(=O)O` (stereo not shown) [Compound 6], the “NTR1 receptor partial agonist activity” value in assay [2] is given as “partial agonist activity”. Regarding `CC(C)C[C@H](NC(=O)Cn1ccc2cc(NS(=O)(=O)c3cccc4cccnc34)ccc21)C(=O)O` [Compound 7], in assay [2], the “NTR1 receptor partial agonist activity” value is “partial agonist activity”. Regarding `COc1cccc(OC)c1-c1cc(C(=O)N[C@H](CC(C)C)C(=O)O)nn1-c1ccnc2cc(Cl)ccc12` [Compound 3b], the “NTR1 specificity of the observed calcium release (block by NTR1 antagonist 1a)” value in assay [1] is “demonstrated by blocking with the NTR1 antagonist (1a)”.

Take `COc1cccc(OC)c1-c1cc(C(=O)N[C@H](C(=O)O)C2CCCCC2)nn1-c1ccnc2cc(Cl)ccc12` [Compound 1b, reference compound]: the “Screen (10 μM), percent stimulation relative to NT” value in assay [1] (10 μM, in triplicate, CHO-K1 cells stably expressing NTR1, NA = not active) is listed as “did not stimulate calcium release”.
